Measured values published in US11826402B2, “Combination therapy involving antibodies against claudin 18.2 for treatment of metastatic pancreatic adenocarcinoma” (Astellas Pharma Inc., priority 2013, dated 2023).
Entries after “also recorded” stand apart in the source; their conditions may differ.

Assays:
Assay type in all cases: cell-based, human
KATO-III = test: IMAB362-induced ADCC on gastric cancer cells, also after chemotherapy pretreatment; conditions: KATO-III; up to 200 μg/ml, 24 hours, human PBMC E:T 40:1
Experimental: Peripheral blood mononuclear cells (PBMCs) including NK cells, monocytes, […] or other effector cells from healthy human donors were purified by Ficoll Hypaque density centrifugation. Washed effector cells were seeded in X-Vivo medium. Kato III cells which express CLDN18.2 endogenously and are of gastric origin were used as target cells in this setting. Target cells stably expressed luciferase, lucifer yellow, which is oxidized by viable cells only.

Panc01 = test: IMAB362-mediated ADCC assay; conditions: at least 2 donors
[1] = system: CLDN18.2 expression in DANG; test: Effect of chemotherapeutic agents on CLDN18.2 expression (RT-PCR, western blot); conditions: DANG pretreated 2 days, Gem 1 ng/ml or Gem 1 ng/ml+Ox 10 ng/ml, versus untreated
Experimental: FIGS. 30A and 30B show the effect of treatment with chemotherapeutic agents on CLDN18.2 expression (RNA).
Actin was used to show equal loading of proteins.
The area of each bar is divided to indicate the percentage of cells in G0/G1, S and G2 phase.
For RNA isolation from pancreatic cancer cell lines, cells were seeded in 10 cm dishes and grown for 2-3 days until 80% confluent. RNA was isolated according to instructions supplied with the RNeasy® Mini Kit (Qiagen). cDNA preparation was performed following manufacturers instructions provided with the SuperScript® III First Strand kit (Invitrogen). RNA and cDNA samples were stored at −80° C.
Quantitative analysis of CLDN18.2 transcripts was performed by amplifying oligo(dT)-primed cDNAs in a 40 cycle PCR reaction using PCR primers #5054s (5′-[…]-3′) and #5060 as (5′-[…]-3′) differentiating between CLDN18.1 and CLDN18.2 isoforms. The reaction was prepared with SYBR Green (QuantiTect SYBR Green PCR Kit, Qiagen), which intercalates in double stranded DNA. […]
For isolation of proteins of pancreatic cancer cell lines, cells were seeded in 10 cm dishes and grown for 2-3 days until 80% confluent. […] Protein concentration was measured in a spectrophotometer (Absorption at 280 nm) and samples were stored at −80° C. until use. […]

Compound | maximum lysis rates (ADCC) (KATO-III) | ADCC EC50 (Panc01) | ADCC Max. lysis (Panc01) | mRNA and protein levels of CLDN18.2 [1] | mRNA and protein levels of CLDN18.2 ([1]; listed as Gem)
IMAB362: chimeric IgG1 antibody directed against CLDN18.2, developed by Ganymed Pharmaceuticals AG | 80-100% | n.m. | 0-4.5% |  | 
Nc1ccn([C@@H]2O[C@H](CO)[C@@H](O)C2(F)F)c(=O)n1 [gemcitabine, 4-amino-1-(2-deoxy-2,2-difluoro-β-D-erythro-pentofuranosyl)pyrimidin-2(1H)-one] |  |  |  | increased; also recorded: upregulation | upregulation
